In patent US8530172B2, “Methods and materials for assessing enzyme-nucleic acid complexes” (Mayo Foundation for Medical Education and Research, priority 2010, dated 2013):

Columns and labels:
[1] = target: T1, topo I-DNA covalent complexes (Homo sapiens, UniProt P11387); test: In vivo complexing of enzyme (ICE) assay with immunoblotting, A549 cells; type: cell-based; details: 10 μM drug, 60 minutes
T1 construct: separate topo I-DNA covalent complexes from free topo I in A549 cell lysates; endogenous in cells; host or cells: A549
T1 sequence (P11387 1-765): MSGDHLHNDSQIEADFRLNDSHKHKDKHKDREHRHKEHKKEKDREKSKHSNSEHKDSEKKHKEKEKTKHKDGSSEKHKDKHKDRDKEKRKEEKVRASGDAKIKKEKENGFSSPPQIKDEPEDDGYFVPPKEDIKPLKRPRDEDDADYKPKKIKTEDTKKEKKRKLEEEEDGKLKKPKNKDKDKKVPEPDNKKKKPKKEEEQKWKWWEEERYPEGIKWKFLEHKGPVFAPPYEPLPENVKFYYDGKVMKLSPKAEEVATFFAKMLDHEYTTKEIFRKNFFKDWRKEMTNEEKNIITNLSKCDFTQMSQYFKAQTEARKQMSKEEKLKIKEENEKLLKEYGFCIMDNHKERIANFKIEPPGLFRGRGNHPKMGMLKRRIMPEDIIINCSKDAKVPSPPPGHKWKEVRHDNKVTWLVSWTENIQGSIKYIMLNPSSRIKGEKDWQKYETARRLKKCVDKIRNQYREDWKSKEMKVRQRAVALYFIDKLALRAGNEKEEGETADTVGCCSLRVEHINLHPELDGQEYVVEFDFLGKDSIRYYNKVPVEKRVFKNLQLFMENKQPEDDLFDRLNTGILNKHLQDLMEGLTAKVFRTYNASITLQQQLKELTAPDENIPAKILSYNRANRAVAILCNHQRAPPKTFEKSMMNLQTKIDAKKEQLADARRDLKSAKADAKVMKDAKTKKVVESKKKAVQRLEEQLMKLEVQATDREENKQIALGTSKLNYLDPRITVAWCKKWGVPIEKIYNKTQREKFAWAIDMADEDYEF
Description: ICE assays were performed as described elsewhere (Subramanian et al., ICE Bioassay; DNA Topoisomerase Protocols: Volume II: Enzymology and Drugs, 2001, pp 137-147; and Gálvez-Peralta et al., Bioorganic & Medicinal Chemistry Letters, 19:4459-4462 (2009)). Briefly, A549 cells grown to 40-60% confluence in 100 mm tissue culture dishes were treated for 60 minutes with 0.1% (v/v) DMSO, 10 μM TPT, or 10 μM etoposide in serum-free RPMI containing 10 mM HEPES, pH 7.4 (medium B). At the end of the incubation, the medium was aspirated, and the cells were rapidly lysed in 1 mL lysis buffer consisting of 1% (w/v) sarkosyl, 10 mM Tris-HCl (pH 8.0 at 20-22° C.) and 1 mM EDTA. Lysate was layered on a cesium chloride gradient and ultracentrifuged at 125,000 g for 21 hours at 20° C. After centrifuge tubes were perforated at the bottom with a 23-gauge needle, 0.5 mL fractions were collected, assayed for the presence of DNA (detectable in fractions 1-4), and slot-blotted onto nitrocellulose membranes. Membranes were then blocked in 5% (w/v) milk in […] NaCl containing 10 mM Tris-HCl (pH 7.4 at 20-22° C.) for 2 hours and incubated in either C-21 anti-topo I IgM antibody (obtained from Y.-C. Cheng; Yale University; New Haven, Conn.) or the α-TopoI cc antibody (diluted to 1 μg/mL in blocking buffer). Western blotting was performed as described elsewhere (Kaufmann, Anal. Biochem., 296:283-286 (2001)).

[2] = target: T2, topo I-DNA covalent complexes (Mus musculus, UniProt Q04750); test: Flow cytometry, wild-type P388 cells; type: cell-based; details: 2 μM TPT
T2 construct: endogenous in cells; host or cells: P388 (wild type)
T2 sequence (Q04750 1-767): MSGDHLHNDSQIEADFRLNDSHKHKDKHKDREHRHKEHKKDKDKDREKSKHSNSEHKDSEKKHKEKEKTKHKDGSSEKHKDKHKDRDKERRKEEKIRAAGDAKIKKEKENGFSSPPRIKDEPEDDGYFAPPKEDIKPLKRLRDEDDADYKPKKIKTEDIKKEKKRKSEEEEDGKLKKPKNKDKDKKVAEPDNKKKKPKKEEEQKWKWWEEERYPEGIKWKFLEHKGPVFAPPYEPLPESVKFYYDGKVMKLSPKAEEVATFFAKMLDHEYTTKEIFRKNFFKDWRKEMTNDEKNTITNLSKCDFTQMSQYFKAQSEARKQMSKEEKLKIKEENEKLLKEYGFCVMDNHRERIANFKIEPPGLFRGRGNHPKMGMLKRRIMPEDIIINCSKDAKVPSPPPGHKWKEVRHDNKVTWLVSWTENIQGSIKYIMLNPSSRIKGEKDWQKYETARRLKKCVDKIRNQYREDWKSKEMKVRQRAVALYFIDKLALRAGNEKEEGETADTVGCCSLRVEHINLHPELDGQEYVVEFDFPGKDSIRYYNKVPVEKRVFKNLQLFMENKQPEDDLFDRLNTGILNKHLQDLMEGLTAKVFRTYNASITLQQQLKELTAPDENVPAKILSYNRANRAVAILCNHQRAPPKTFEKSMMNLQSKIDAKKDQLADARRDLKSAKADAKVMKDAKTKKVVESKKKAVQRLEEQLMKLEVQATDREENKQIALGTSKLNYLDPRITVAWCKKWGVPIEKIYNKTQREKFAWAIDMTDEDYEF
Description: (§1) A549 and K562 cells were stained using a modified protocol of a protocol described elsewhere (Muslimovic et al., Nat. Protoc., 3:1187-1193 (2008)). After 10^6 cells were treated for 1 hour with TPT in medium B, samples were centrifuged at 300 g for 5 minutes. Cells were then partially lysed for 1 minute in 100 μL extraction buffer, which consisted of 25 mM Tris-HCl (pH 7.5 at 20-22° C.), 1% (w/v) Triton X-100, 1 mM EDTA, 0.01% (w/v) BSA, and 0.2% (w/v) paraformaldehyde then fixed for 10 minutes at 20-22° C. by addition of 1 mL 2% (w/v) paraformaldehyde in PBS. Nuclei were pelleted and incubated for 60 minutes in 100 μL blocking buffer with primary antibody (1 μg/mL for A549 and P388 cells; and 5 μg/mL for K562 cells). Nuclei were washed by addition of 2 mL PBS, pelleted, and incubated for 30 minutes in 100 μL blocking buffer with 1 μg/mL Alexa Fluor 647-conjugated goat anti-mouse IgG (Invitrogen). Nuclei were washed by addition of 2 mL PBS, pelleted, and immediately analyzed on a FACSCanto II flow cytometer (BD Biosciences; San Jose, Calif.) on the APC channel (excitation: 633 nm; emission: 660/20 nm).

[3] = system: topo I-DNA covalent complexes; test: Flow cytometry, P388/CPT cells (lack detectable topo I); type: cell-based, mouse; details: 2 μM TPT
Description: as §1

[4] = target: T1, topo I-DNA covalent complexes; test: Immunofluorescence (confocal microscopy) in A549 cells; type: cell-based
Description: Immunofluorescence studies in A549 cells were performed as described elsewhere (Segovis et al., J. Immunol., 182:6933-6942 (2009)) with several modifications. After cells grown on nitric acid-etched coverslips were treated for 1 hour with TPT in medium B, coverslips were fixed in 2% (w/v) paraformaldehyde in calcium- and magnesium-free Dulbecco's phosphate buffered saline (PBS) for 10 minutes at room temperature, washed with PBS, and permeabilized with 0.25% (v/v) Triton X-100 in PBS for 5 minutes. To denature DNA-protein crosslinks, the coverslips were incubated in 1% SDS for 5 minutes (Brown et al., Histochem. Cell Biol., 105:261-267 (1996)), washed three times with PBS, and incubated in a blocking buffer consisting of PBS, 1% (v/v) glycerol, 0.1% glycerol from cold water fish, 5% (v/v) normal goat serum, 0.1% (w/v) BSA, and 0.4% (w/v) sodium azide. Coverslips were incubated overnight in primary antibody, followed by staining with Alexa Fluor 488-, 568-, or 647-conjugated secondary antibody (Invitrogen) diluted at a ratio of 1:1000. α-TopoI cc antibody was used at 1.2 μg/mL, and α-Topo I human IgG (Topogen; Port Orange, Fla.) was used at 1:1000. […] Quantitation and image processing were performed using the Zeiss Zen software package and Adobe Photoshop CS3.

[5] = target: T1, topo I-DNA covalent complexes; test: Band depletion assay, A549 cells (SDS-PAGE immunoblot and slot blot); type: cell-based; details: increasing TPT concentrations up to 100 μM, 60 minutes
Description: Band depletion assays were performed as described elsewhere (Kaufmann and […], Methods Mol. Biol., 94:253-268 (1999)). A549 cells grown in 100 mm culture dishes to 40-60% confluence were treated with increasing concentrations of TPT in medium B for 60 minutes. After treatment, cells were immediately solubilized in 6 M guanidine hydrochloride containing 250 mM Tris-HCl (pH 8.5 at 20° C.), 10 mM EDTA, 1% (v/v) 2-mercaptoethanol, and 1 mM freshly added phenylmethylsulfonyl fluoride. After preparation, for electrophoresis as described elsewhere (Kaufmann et al., Blood, 89:2098-2104 (1997), aliquots containing […] of protein (determined by the bicinchoninic acid method (Smith et al., Anal. Biochem., 150:76-85 (1985)) were either slot blotted for immunoblotting with α-TopoI cc antibody or separated on SDS-polyacrylamide gels, eletrophoretically transferred to nitrocellulose, and probed with C-21 anti-Topo I or, as a loading control anti-Hsp90 mouse (obtained from D. O. Toft; Mayo Clinic; Rochester, Minn.).

| SMILES | topo I-DNA covalent complexes in DNA fractions after drug exposure (α-TopoI cc blot) [1] | shift in α-TopoI cc staining intensity [2] | shift in α-TopoI cc staining intensity [3] | α-TopoI cc staining intensity (average number of foci per cell or maximal mean fluorescence) ([4]; TPT 1 hour) | non-nucleolar staining of topo I-DNA complexes (double staining) ([4]; TPT versus untreated) | topo I-DNA covalent complex signal (slot blot probed with α-TopoI cc) [5] | total topo I signal at 100 kDa (SDS-PAGE, immunoblot) [5] |
| --- | --- | --- | --- | --- | --- | --- | --- |
| COc1cc([C@@H]2c3cc4c(cc3[C@@H](O[C@@H]3O[C@@H]5CO[C@@H](C)O[C@H]5[C@H](O)[C@H]3O)[C@H]3COC(=O)[C@H]23)OCO4)cc(OC)c1O [etoposide] | failed to detect |  |  |  |  |  |  |
| CC[C@@]1(O)C(=O)OCc2c1cc1n(c2=O)Cc2cc3c(CN(C)C)c(O)ccc3nc2-1 [TPT, Topotecan] | detected topo I that co-migrates with DNA | rightward shift was detectable | this shift was not observed | dose-dependent increase | dramatic increase in non-nucleolar staining of topo I-DNA complexes | corresponding increase in signal for topo I-DNA covalent complexes | graduated decrease in the topo I signal at 100 kDa |
